Legend:
Assay type in all cases: cell-based
[1] = system: HIV-1 RT mutant G190A; assay: single round infection assay, G190A; conditions: for IC50: Human immunodeficiency virus 1
Procedure: (§1) The human osteosarcoma cell line, HOS, was obtained from Dr. Richard Schwartz (Michigan State University, East Lansing, MI) and grown in Dulbecco’s modified Eagle’s medium (Invitrogen, Carlsbad, CA) supplemented with 5 % (v/v) fetal bovine serum, 5 % newborn calf serum, and penicillin (50 units/ml) plus streptomycin (50 µg/ml; Quality Biological, Gaithersburg, MD). Virion production and single-round infectivity assays were used to determine antiviral activity (IC50 values) of the compounds as previously described.
(§2) pNLNgoMIVR-ΔEnv.LUC has been described previously. The RT open reading frame was removed from pNLNgoMIVR-ΔEnv.LUC (digestion with SpeI and SalI) and inserted between the SpeI and SalI sites of pBluescript II KS+. Using that construct as the wild-type template, we prepared the following HIV-1 RT mutants using the QuikChange II XL (Stratagene, La Jolla, CA) site-directed mutagenesis protocol kit: L100I, K103N, Y181C, Y188L, H221Y, K103N/Y181C, G190A, G190S, M230L, P236L, L100I/K103N, K103N/P225H, V106A/G190A/F227L, V106A, L234I, V106A/F227L, V106A/L234I, V106A/F227L/L234I, E40K, D67E, K101E, V111A, E138K, M184I, M184V, K101E/M184I, K101E/M184V, E138K/M184I, E138K/M184V, K101P, Y181I, and K101P/V179I. The following sense oligonucleotides were used with matching cognate antisense oligonucleotides (not shown) (Integrated DNA Technologies, Coralville, IA) in the mutagenesis: L100I, 5′-[…]-3′; L100I 2-103, 5′-[…]-3′; K103N, 5′-[…]-3′; Y181C, 5′-[…]-3′; Y188L, 5′-[…]-3′; H221Y, 5′-[…]-3′; G190A, 5′-[…]-3′; G190S, 5′-[…]-3′; P225H, 5′-[…]-3′; F227, 5′-[…]-3′; M230L, 5′-[…]-3′; P236L, 5′-[…]-3′; V106A, 5′-[…]-3′; L234I, 5′-[…]-3′; E40K, 5′-[…]-3′; D67E, 5′-[…]-3′; K101E, 5′-[…]-3′; V111A, 5′-[…]-3′; E138K, 5′-[…]-3′; M184I, 5′-[…]-3′; M184V, 5′-[…]-3′; K101P, 5′-[…]-3′; Y181I, 5′-[…]-3′; K101P/V179I, 5′-[…]-3′. The double mutants K103N/Y181C, K103N/P225H, and L100I/K103N were made using the previously generated K103N mutant and the appropriate oligonucleotides to add the second mutation, Y181C, P225, and L100I respectively. The double mutants V106A/F227L and V106A/L234I were prepared using the previously generated V106A mutant and the appropriate oligonucleotides to add the second mutation, F227L and L234I, respectively. The double mutants K101E/M184I and K101E/M184V were constructed using the previously generated K101E mutant and the appropriate oligonucleotides to add the second mutation, M184I and M184V, respectively. The double mutants E138K/M184I and E138K/M184V were constructed using the previously generated E138K mutant and the appropriate oligonucleotides for the second mutation, M184I and M184V, respectively. The triple mutant V106A/F227L/L234I was made using the previously generated V106A/F227L double mutant and the appropriate oligonucleotides for the third mutation, L234I. The triple mutant V106A/G190A/F227L was constructed in a series of steps using the previously generated V106A mutant and the appropriate oligonucleotides for the second mutation, G190A, to generate the double mutant V106A/G190A, and then the triple mutant was made using double mutant V106A/G190A and oligonucleotides for the third mutation, F227L. The DNA sequence of each construct was verified by DNA sequence determination. The sequences encoding the mutant RTs were then subcloned into pNLNgoMIVR-ΔEnv.LUC (between the KpnI and SalI sites) to produce the mutant HIV-1 constructs. These DNA sequences were also checked independently by DNA sequence determination.
(§3) 10.1186/s12977-016-0244-2 The IC50 values (nM) of RPV and the RPV analogs were determined against the NNRTI resistant mutants were measured by using a single round infection assay, n = 4. The concentrations (nM) are measured by reductions in luciferase reporter activity followed by the standard deviations. […]

[2] = system: HIV-1 RT mutant M230L; assay: single round infection assay, M230L; conditions: for IC50: ± SD, n=4, limit of detection 100 nM; for fold-change of IC50 of the mutant relative to WT: M230L vs WT
Procedure: as §1, §2, §3

[3] = system: HIV-1 RT mutant P236L; assay: single round infection assay, P236L; conditions: for IC50: Human immunodeficiency virus 1
Procedure: as §1, §2, §3

[4] = system: HIV-1 RT mutant K103N/P225H; assay: single round infection assay, K103N/P225H; conditions: for IC50: Human immunodeficiency virus 1; for fold-change of IC50 of the mutant relative to WT: K103N/P225H vs WT
Procedure: as §1, §2, §3

[5] = system: HIV-1 RT mutant V106A/G190A/F227L; assay: single round infection assay, V106A/G190A/F227L; conditions: for IC50: Human immunodeficiency virus 1; for fold-change of IC50 of the mutant relative to WT: V106A/G190A/F227L vs WT
Procedure: as §1, §2, §3

[6] = system: HIV-1 RT mutant V106A; assay: single round infection assay, V106A; conditions: V106A vs WT
Procedure: as §1, §2, §3

[7] = system: HIV-1 RT mutant K101E; assay: single round infection assay, K101E; conditions: for IC50: ± SD, n=4; for fold-change of IC50 of the mutant relative to WT: K101E vs WT
Procedure: as §1, §2, §3

[8] = system: HIV-1 RT mutant E138K; assay: single round infection assay, E138K; conditions: for fold-change of IC50 of the mutant relative to WT: E138K vs WT; for IC50: ± SD, n=4
Procedure: as §1, §2, §3

[9] = system: HIV-1 RT mutant K101E/M184V; assay: single round infection assay, K101E/M184V; conditions: for IC50: ± SD, n=4; for fold-change of IC50 of the mutant relative to WT: K101E/M184V vs WT
Procedure: as §1, §2, §3

[10] = system: HIV-1 RT mutant K101P; assay: single round infection assay, K101P; conditions: for IC50: Human immunodeficiency virus 1; for fold-change of IC50 of the mutant relative to WT: K101P vs WT
Procedure: as §1, §2, §3

[11] = system: HIV-1 RT mutant K101P/V179I; assay: single round infection assay, K101P/V179I; conditions: for IC50: Human immunodeficiency virus 1; for fold-change of IC50 of the mutant relative to WT: K101P/V179I vs WT
Procedure: as §1, §2, §3

[12] = system: HIV-1 RT mutant V106A/F227L/L234I; assay: single round infection assay, V106A/F227L/L234I; conditions: V106A/F227L/L234I vs WT
Procedure: as §1, §2, §3

[13] = Human immunodeficiency virus 1, M230L
[14] = Human immunodeficiency virus 1, K101E
[15] = Human immunodeficiency virus 1, E138K

SMILES	IC50 [1] [nM]	IC50 [2, 13] [nM]	fold-change of IC50 of the mutant relative to WT [2]	IC50 [3] [nM]	IC50 [4] [nM]	IC50 [5] [nM]	fold-change of IC50 of the mutant relative to WT [5]	IC50 [7, 14] [nM]	fold-change of IC50 of the mutant relative to WT [7]	IC50 ([7]; K101E) [nM]	fold-change of IC50 of the mutant relative to WT [8]	IC50 ([8]; E138K) [nM]	IC50 [8, 15] [nM]	fold-change of IC50 of the mutant relative to WT [9]	IC50 [10] [nM]	IC50 [11] [nM]	fold-change of IC50 of the mutant relative to WT [4]	fold-change of IC50 of the mutant relative to WT [10]	IC50 ([2]; M230L) [nM]	fold-change of IC50 of the mutant relative to WT [11]	further results
Cc1cc(/C=C/C#N)cc(C)c1Nc1nc(Nc2ccc(C(F)(F)F)cc2)c2nc[nH]c2n1 [compound 15]	0.77 ± 0.19	16.8	10	0.9 ± 0.08	1.5 ± 0.31	2.6 ± 0.17	< 2	< 6	4	6.2 ± 1.2	4	6.3 ± 1.3	< 6	2	> 100	> 100	–	–	–	–	fold-change of IC50 of the mutant relative to WT [6]: < 2; IC50 ([9]; Human immunodeficiency virus 1, K101E/M184V): < 6 nM; IC50 ([9]; K101E/M184V): 3.8 ± 0.42 nM
Cc1cc(/C=C/C#N)cc(C)c1Nc1nc(Nc2ccc(C#N)cc2)c2nc[nH]c2n1 [compound 13]	0.3 ± 0.04	–	8	0.31 ± 0.02	0.3 ± 0.09	0.5 ± 0.2	< 2	–	4	–	5	–	–	2	18.1	> 100	< 2	70	–	–	fold-change of IC50 of the mutant relative to WT ([1]; G190A vs WT): < 2; fold-change of IC50 of the mutant relative to WT ([3]; P236L vs WT): < 2
Cc1cc(/C=C/C#N)cc(C)c1Nc1nc(Nc2ccc(C#N)cc2)ncc1N [compound 7]	0.3	< 6.1	5	0.22 ± 0.06	1.1 ± 0.25	1.4 ± 0.4	< 2	< 2.5	3	2.3 ± 1.2	2	1.6 ± 0.07	< 2.5	–	9	81.4 ± 8.1	< 2	12	4 ± 2	104	–
Cc1cc(/C=C/C#N)cc(C)c1-n1cnc2cnc(Nc3ccc(C#N)cc3)nc21 [compound 27]	0.2 ± 0.1	< 6.1	7	0.2 ± 0.04	2.1 ± 0.93	2.2 ± 1.2	4	–	2	–	2	1.3 ± 0.14	< 2.5	< 2	4.9	16.6	4	8	4.2 ± 0.5	29	fold-change of IC50 of the mutant relative to WT [12]: < 2

Reference: PMC4754833, “Rilpivirine analogs potently inhibit drug-resistant HIV-1 mutants” (Retrovirology, 2016)
